From US6737383B1, “Herbicidal oxadiazolidines” (priority 1999, dated 2004)

Assays:
[1] = system: surinam grass; experiment: Test B pre/postemergence surinam grass; assay type: in vivo, Brachiaria decumbens
How it was run: (§1)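 Herbicidal effect was estimated by eye on a ten-point control scale after plants spent twelve to sixteen days in a greenhouse following soil or foliar treatment. Foliar sprays targeted plants at one to four leaves; all doses were formulated in a non-phytotoxic solvent with surfactant.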

[2] = system: corn; experiment: Test B pre/postemergence corn; assay type: in vivo, Zea mays
How it was run: as §1

[3] = system: morningglory; experiment: Test B pre/postemergence morningglory; assay type: in vivo, Ipomoea hederacea
How it was run: as §1

[4] = system: smallflower flatsedge; experiment: Test B flood test smallflower flatsedge; assay type: in vivo, Cyperus difformis
How it was run: (§2)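 Flood test on plants grown to the 2-leaf stage; treated plants kept in greenhouse twelve to sixteen days, then visually rated against controls on a 0 (no effect) to 10 (complete control) scale.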

[5] = system: velvetleaf; experiment: Test B pre/postemergence velvetleaf; assay type: in vivo, Abutilon theophrasti; conditions: for Plant response rating, Velvetleaf: Rate 250 g/ha
How it was run: as §1

[6] = system: wild oat; experiment: Test B pre/postemergence wild oat; assay type: in vivo, Avena fatua; conditions: for Plant response rating, Wild oats: Rate 250 g/ha
How it was run: as §1

[7] = system: giant foxtail; experiment: Test B pre/postemergence giant foxtail; assay type: in vivo, Setaria faberii
How it was run: as §1

[8] = system: blackgrass; experiment: Test B pre/postemergence blackgrass; assay type: in vivo, Alopecurus myosuroides
How it was run: as §1

[9] = system: crabgrass; experiment: Test B pre/postemergence crabgrass; assay type: in vivo, Digitaria sanguinalis
How it was run: as §1

[10] = system: cocklebur; experiment: Test B pre/postemergence cocklebur; assay type: in vivo, Xanthium strumarium
How it was run: as §1

[11] = system: bedstraw; experiment: Test B pre/postemergence bedstraw; assay type: in vivo, Galium aparine; conditions: Preemergence
How it was run: as §1

[12] = system: wheat; experiment: Test B pre/postemergence wheat; assay type: in vivo, Triticum aestivum; conditions: for Plant response rating, Wheat: Rate 250 g/ha
How it was run: as §1

[13] = system: bamyardgrass; experiment: Test B flood test barnyardgrass; assay type: in vivo, Echinochloa crus-galli
How it was run: as §2

[14] = system: soybean; experiment: Test B pre/postemergence soybean; assay type: in vivo, Glycine max
How it was run: as §1

[15] = system: duck salad; experiment: Test B flood test duck salad; assay type: in vivo, Heteranthera limosa
How it was run: as §2

[16] = system: rape; experiment: Test B pre/postemergence rape; assay type: in vivo, Brassica napus
How it was run: as §1

[17] = Postemergence, Rate 62 g/ha, scale 0 to 10, 0 is no effect, 10 is complete control
[18] = Postemergence, Rate 250 g/ha, scale 0 to 10, 0 no effect, 10 complete control
[19] = Preemergence, Rate 62 g/ha, scale 0 to 10 (0 no effect, 10 complete control)
[20] = Preemergence, Rate 125 g/ha, scale 0 to 10 (0 no effect, 10 complete control)
[21] = Preemergence, Rate 250 g/ha, scale of 0 to 10 where 0 is no effect and 10 is complete control
[22] = Preemergence, Rate 500 g/ha, scale 0 (no effect) to 10 (complete control)
[23] = Postemergence, Rate 125 g/ha, scale of 0 to 10 where 0 is no effect and 10 is complete control
[24] = Rate 500 g/ha, Postemergence, scale 0 to 10, 0 no effect, 10 complete control
[25] = Postemergence (flood test species), Rate 125 g/ha, scale of 0 to 10 where 0 is no effect and 10 is complete control
[26] = Rate 250 g/ha, headed Pre-emergence (flood test species), scale 0 to 10 (0 no effect, 10 complete control)
[27] = Rate 500 g/ha, headed Pre-emergence (flood test species), scale 0 to 10 (0 no effect, 10 complete control)
[28] = Rate 500 g/ha, listed under Postemergence (flood test species), scale 0 to 10, 0 no effect, 10 complete control
[29] = Rate 2000 g/ha, Pre-emergence (as headed), scale 0 to 10
[30] = Preemergence, Rate 125 g/ha, 0 is no effect, 10 is complete control
[31] = Preemergence, scale of 0 to 10 where 0 is no effect and 10 is complete control
[32] = Postemergence, scale 0 to 10, 0 is no effect, 10 is complete control
[33] = Rate 1000 g/ha, Pre-emergence (as headed), scale 0 to 10
[34] = flood test, listed under Postemergence, Rate 250 g/ha, scale 0 to 10, 0 no effect, 10 complete control

Which results are given for `CC(C)N(C(=O)n1oc(=O)n(Cc2ccccc2)c1=O)c1ccccc1` [Compound 94]?
B. signalgrass plant response rating [1, 17]: 0; B. signalgrass plant response rating [1, 18]: 0; B. signalgrass plant response rating [1, 19]: 0; Plant response rating, B. signalgrass [1, 20]: 1; Plant response rating, B. signalgrass [1, 21]: 1; B. signalgrass plant response rating [1, 22]: 5; B. signalgrass plant response rating ([1]; Rate 125 g/ha, Postemergence, scale 0 to 10, 0 no effect, 10 complete control): 0; B. signalgrass plant response rating ([1]; Rate 500 g/ha, Postemergence, scale of 0 to 10 where 0 is no effect and 10 is complete control): 2; Corn plant response rating [2, 17]: 0; Corn plant response rating [2, 23]: 0; Corn plant response rating [2, 18]: 0; Corn plant response rating [2, 19]: 0; Plant response rating, Corn [2, 20]: 2; Plant response rating, Corn [2, 21]: 3; Corn plant response rating [2, 22]: 6; Corn plant response rating [2, 24]: 0; Morningglory plant response rating [3, 17]: 10; Morningglory plant response rating [3, 23]: 10; Morningglory plant response rating [3, 18]: 10; Morningglory plant response rating [3, 19]: 0; Plant response rating, Morningglory [3, 20]: 0; Plant response rating, Morningglory [3, 21]: 0; Morningglory plant response rating [3, 22]: 0; Morningglory plant response rating [3, 24]: 10; S. Flatsedge plant response rating [4, 25]: 0; S. Flatsedge plant response rating [4, 17]: 0; S. Flatsedge plant response rating ([4]; Pre-emergence, Rate 1000 g/ha, scale 0 to 10 (0 no effect, 10 complete control)): 0; Plant response rating, S. Flatsedge ([4]; Rate 250 g/ha, Postemergence (flood test), scale 0 to 10, 0 is no effect, 10 is complete control): 0; S. Flatsedge plant response rating [4, 26]: 0; Plant response rating, S. Flatsedge [4, 27]: 0; S. Flatsedge plant response rating [4, 28]: 9; S. Flatsedge plant response rating [4, 29]: 8; Velvetleaf plant response rating [5, 17]: 0; Velvetleaf plant response rating [5, 23]: 0; Velvetleaf plant response rating [5, 19]: 0; Velvetleaf plant response rating (0 to 10 scale) [5, 30]: 0; Plant response rating, Velvetleaf [5, 31]: 0; Velvetleaf plant response rating [5, 22]: 3; Plant response rating, Velvetleaf [5, 32]: 4; Velvetleaf plant response rating [5, 24]: 6; Wild oats plant response rating [6, 17]: 0; Wild oats plant response rating [6, 23]: 0; Wild oats plant response rating [6, 19]: 0; Wild oats plant response rating (0 to 10 scale) [6, 30]: 3; Plant response rating, Wild oats [6, 31]: 4; Wild oats plant response rating [6, 22]: 6; Plant response rating, Wild oats [6, 32]: 0; Wild oats plant response rating [6, 24]: 1; Giant foxtail plant response rating [7, 17]: 0; Giant foxtail plant response rating [7, 23]: 0; Giant foxtail plant response rating [7, 18]: 5; Giant foxtail plant response rating [7, 19]: 8; Plant response rating, Giant foxtail [7, 20]: 9; Plant response rating, Giant foxtail [7, 21]: 9; Giant foxtail plant response rating [7, 22]: 10; Giant foxtail plant response rating [7, 24]: 8; Blackgrass plant response rating [8, 17]: 0; Blackgrass plant response rating [8, 23]: 0; Blackgrass plant response rating [8, 18]: 3; Blackgrass plant response rating [8, 19]: 0; Plant response rating, Blackgrass [8, 20]: 1; Plant response rating, Blackgrass [8, 21]: 8; Blackgrass plant response rating [8, 22]: 9; Blackgrass plant response rating [8, 24]: 6; Crabgrass plant response rating [9, 17]: 3; Crabgrass plant response rating [9, 23]: 3; Crabgrass plant response rating [9, 18]: 8; Crabgrass plant response rating [9, 19]: 3; Plant response rating, Crabgrass [9, 20]: 3; Plant response rating, Crabgrass [9, 21]: 6; Crabgrass plant response rating [9, 22]: 10; Crabgrass plant response rating [9, 24]: 9; Cocklebur plant response rating [10, 17]: 0; Cocklebur plant response rating [10, 23]: 1; Cocklebur plant response rating [10, 18]: 1; Cocklebur plant response rating [10, 19]: 0; Plant response rating, Cocklebur [10, 20]: 0; Plant response rating, Cocklebur [10, 21]: 0; Cocklebur plant response rating [10, 24]: 3; Bedstraw plant response rating ([11]; Rate 62 g/ha, scale 0 to 10 (0 no effect, 10 complete control)): 0; Plant response rating, Bedstraw ([11]; Rate 125 g/ha, scale 0 to 10 (0 no effect, 10 complete control)): 0; Plant response rating, Bedstraw ([11]; Rate 250 g/ha, scale of 0 to 10 where 0 is no effect and 10 is complete control): 0; Bedstraw plant response rating ([11]; Rate 500 g/ha, scale 0 (no effect) to 10 (complete control)): 0; Wheat plant response rating [12, 17]: 0; Wheat plant response rating [12, 23]: 0; Wheat plant response rating [12, 19]: 0; Wheat plant response rating (0 to 10 scale) [12, 30]: 0; Plant response rating, Wheat [12, 31]: 0; Wheat plant response rating [12, 22]: 0; Plant response rating, Wheat [12, 32]: 0; Wheat plant response rating [12, 24]: 0; Barnyardgrass plant response rating [13, 17]: 0; Barnyardgrass plant response rating ([13]; Rate 125 g/ha, Postemergence section (flood test species), scale 0 to 10, 0 no effect, 10 complete control): 0; Barnyardgrass plant response rating [13, 26]: 0; Plant response rating, Barnyardgrass [13, 27]: 0; Barnyardgrass plant response rating [13, 28]: 9; Barnyardgrass plant response rating [13, 33]: 0; Barnyardgrass plant response rating ([13]; Rate 2000 g/ha, Pre-emergence (as headed), scale 0 to 10, 0 no effect, 10 complete control): 7; Barnyardgrass plant response rating [13, 34]: 0; Soybean plant response rating [14, 17]: 5; Soybean plant response rating [14, 23]: 5; Soybean plant response rating [14, 19]: 0; Plant response rating, Soybean [14, 20]: 0; Plant response rating, Soybean [14, 21]: 0; Soybean plant response rating [14, 22]: 0; Plant response rating, Soybean ([14]; Rate 250 g/ha, Postemergence, scale 0 to 10, 0 is no effect, 10 is complete control): 5; Soybean plant response rating [14, 24]: 5; Ducksalad plant response rating [15, 25]: 0; Ducksalad plant response rating [15, 17]: 0; Ducksalad plant response rating [15, 26]: 0; Plant response rating, Ducksalad [15, 27]: 0; Ducksalad plant response rating [15, 28]: 2; Ducksalad plant response rating [15, 33]: 0; Ducksalad plant response rating [15, 29]: 0; Ducksalad plant response rating [15, 34]: 0; Rape plant response rating [16, 17]: 1; Rape plant response rating [16, 23]: 2; Rape plant response rating [16, 18]: 2; Rape plant response rating [16, 19]: 0; Plant response rating, Rape [16, 20]: 0; Plant response rating, Rape [16, 21]: 2; Rape plant response rating [16, 22]: 5; Rape plant response rating [16, 24]: 3
